Read-outs that look alike come from different tables or passages of the source.
Experiments:
[1] = Nephrotoxicity of non-deuterated D-serine at 300 mg/kg in male Sprague-Dawley rats (clinical chemistry, urine); assay type: in vivo; conditions: 300 mg/kg PO
Protocol: (§1) The hippocampus, cortex and plasma were collected and analyzed. Additional blood was collected and were analyzed for the full clinical chemistry profile. Urine was also collected and examined for glucose and total protein. […] The mean plasma, hippocampus, and cortex concentration at 1 hour are 19200 ng/mL, 674 ng/g, and 754 ng/g; respectively. The mean plasma, hippocampus, and cortex concentrations at 8 hours were 11250 ng/mL, 17725 ng/g, and 11875 ng/g, respectively. […] Blood urea nitrogen and creatinine levels were elevated.

[2] = Nephrotoxicity of Compound 100 and non-deuterated D-serine in male Sprague-Dawley rats, 150 mg/kg PO (BUN, creatinine, GGT); assay type: in vivo
Excerpt: (§2) The pharmacokinetic profile of Compound 100 was investigated in male Sprague-Dawley rats compared with that of non-deuterated D-serine. […] Plasma was collected and analyzed for Compound 100 and non-deuterated D-Serine. Additional blood was collected and analyzed for the full clinical chemistry profile.

[3] = Pharmacokinetics of non-deuterated D-serine in male Sprague-Dawley rats, 300 mg/kg PO; assay type: in vivo; conditions: rat, mean
Protocol: as §1

[4] = Pharmacokinetics of deuterated and non-deuterated D-serine in male Sprague Dawley rats, PO 10 mg/kg; assay type: in vivo; conditions: rat, 0.5% Methylcellulose, plasma
Protocol: Three rats were used for each group. Blood was collected at the following time points: for IV dosing: pre-dose, 0.05, 0.167, 0.5, 1, 2, 4, 6, 8 and 12 hours post-dose; for PO dosing: pre-dose, 0.25, 0.5, 1, 2, 4, 6, 8 and 12 hours post-dose PO. Urine was collected at pre-dose (minimum 12 hours), 0-6, 6-12 and 12-24 hours. Plasma samples were analyzed and quantified for dosed compound LC-MS/MS.

[5] = Pharmacokinetics dose response of non-deuterated D-serine in male Sprague-Dawley rats, 30-300 mg/kg PO; assay type: in vivo; conditions: rat, plasma; for Tmax: po
Excerpt: (§3) The pharmacokinetic profile of non-deuterated D-serine was investigated in male Sprague-Dawley rats. […] Plasma was collected and analyzed for the non-deuterated D-serine. Additional blood was collected and analyzed for the full clinical chemistry profile.

[6] = Nephrotoxicity comparison of Compound 100 and non-deuterated D-serine at doses from 150 mg/kg to 750 mg/kg; assay type: in vivo, rats
[7] = Pharmacokinetic profile of Compound 100 versus non-deuterated D-serine in male Sprague-Dawley rats, 150 mg/kg PO; assay type: in vivo; conditions: male, Sprague-Dawley, rat, fasted, plasma, mean
Excerpt: as §2

[8] = biological target: T1, human NMDAR subunits GluN1 and GluN2A (Homo sapiens, UniProt Q05586); assay: NMDA receptor activation in automated patch clamp system (ScreenPatch), HEK293 cells; assay type: cell-based; conditions: 0.003 to 10 μM, Compound 100 versus D-serine
T1 construct: expressed in transfected cells; host or cells: HEK293
Protocol: Peak current and steady state current were measured. The activity at the NMDA receptor was indistinguishable for the two compounds.

[9] = Randomized single dose crossover plasma PK of Compound 100 versus D-serine in healthy volunteers; assay type: in vivo, human; conditions: single 0.25 g oral solution, fasted, N = 11
Protocol: Thirteen healthy volunteers between the ages of 18 to 55 were enrolled in the study. […] Period 1 dosing occurred within 14 days of screening. […] Similarly, in Period 2, the 2 subjects in the sentinel group received the alternate treatment after a 4-day washout and approximately 2 days prior to the remaining subjects receiving their Period 2 dose. […] Water consumption was restricted from 1 hour prior to dosing until 1 hour after dosing. Subjects fasted for approximately 3 hours after dosing and remained upright or semi-supine during this period. A meal was provided 3-4 hours after the dose. Meal times and contents were standardized until the last blood sample was collected for PK assessments. […] Plasma samples were stored in labeled tubes at approximately -80° C.

[10] = Nephrotoxicity dose response of non-deuterated D-serine in male Sprague-Dawley rats, 30-300 mg/kg PO; assay type: in vivo; conditions: 24 hr samples at the 150 and 300 mg/kg doses, compared to control and reference values
Excerpt: as §3

[11] = 150 mg/kg PO, fasted, mean (CV %)

NC(CO)C(=O)O (stereo in doubt) [Non-deuterated D-Serine, D-serine]
Blood urea nitrogen level [1]: elevated | creatinine level [1]: elevated | glucose in urine [1]: presence of glucose was observed | levels of biomarkers of nephrotoxicity [2]: caused an increase | blood urea nitrogen (BUN) level ([2]; 8 hr and 24 hr serum samples): Elevated levels | creatinine level ([2]; 24 hr serum samples): Elevated levels | gamma glutamyl transferase (GGT) level ([2]; 24 hr serum samples): Elevated levels | concentration at 8 h ([3]; cortex, endogenous level not subtracted, read-out: Cortex concentration): 11900 ng/g | Tmax ([3]; fasted, plasma): 30 min | AUC(0-inf) ([3]; fasted, plasma, endogenous level subtracted): 500 µg·h/mL | concentration at 8 h ([3]; hippocampus, endogenous level not subtracted, read-out: Hippocampus concentration): 17700 ng/g | concentration at 8 h ([3]; plasma, endogenous level subtracted, read-out: Plasma concentration): 11.2 µg/mL | Tmax [4]: 25 min | AUC(0-inf) [5, 11]: 349 µg·h/mL | Cmax [5, 11]: 180 µg/mL | Tmax ([5]; 30 mg/kg, 30 mg/kg PO, fasted, mean): 30 min | Tmax ([5]; 75 mg/kg, 75 mg/kg PO, fasted, mean): 30 min | Tmax ([5]; 100 mg/kg, 100 mg/kg PO, fasted, mean): 30 min | Tmax ([5]; 150 mg/kg, 150 mg/kg PO, fasted, mean): 18 min | Tmax ([5]; 300 mg/kg, 300 mg/kg PO, fasted, mean): 30 min | Tmax ([5]; 300 mg/kg, all doses 30, 75, 100, 150, and 300 mg/kg PO): 18 to 30 min | gross signs of nephrotoxicity ([6]; dose escalation 150 mg/kg to 750 mg/kg): only observed in rats receiving non-deuterated D-serine | changes in BUN or creatinine ([6]; doses from 150 mg/kg to 750 mg/kg PO): increasingly elevated levels | AUC(0-inf) [7]: 349 µg·h/mL | Cmax ([7]; read-out: Cmax): 180 µg/mL | activity at the NMDA receptor (peak current and steady state current) [8]: indistinguishable | Tmax ([9]; human, plasma): 60 min | AUC(0-inf) ([9]; human, plasma, mean): 32.5 µg·h/mL | Cmax ([9]; human, plasma, mean): 4.09 µg/mL | half-life ([9]; human, plasma, mean): 1030 min | CL/F ([9]; mean): 7.9 L/h | creatinine level [10]: Elevated levels | gamma glutamyl transferase (GGT) level [10]: Elevated levels | urea nitrogen level [10]: Elevated levels

Source: patent publication US20220313640A1 (Concert Pharmaceuticals, Inc., priority 2019, published 2022)
